Measured values taken from patent publication US11926628B2 (Gilead Sciences, Inc., priority 2021, dated 2024).
pEC50, pIC50: −log10 of the molar value.

Columns and labels:
human DGKα = human DGKα (Homo sapiens (Human), UniProt P23743); assay: DGKα Biochemical Activity Assay (ADP-Glo); details: recombinant DGKα 1 nM, 100 μM ATP, 18:1 DAG/POPS/octylglucoside micelles, 1 hour at 25° C.; geometric mean; read-out: HTBS DGKa 1X ATP KM IC50
In short: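 Recombinant DGKα (1 nM final) was preincubated with compound for 15 min, then reacted for 1 h at 25 °C with 100 μM ATP and octylglucoside micelles of 0.85 mM 18:1 DAG and 6.75 mM POPS in pH 7.2 MOPS with 5 mM MgCl2. ADP formed was read by ADP-Glo luminescence. IC50 came from four-parameter fits normalized to DMSO and 50 μM CU3, and values were geometric means.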

[1] = test system: Jurkat NFκB-luciferase cells; assay: Jurkat NFκB-Luciferase Assay; format: cell-based; details: Homo sapiens; Jurkat NFκB-luciferase cells activated with anti-CD3 antibody (OKT3), 2.5 hrs at 37° C.; geometric mean; read-out: DGK NFKb Luciferase EC50
In short: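 Jurkat NFκB-luciferase reporter cells stimulated on plate-bound anti-CD3 (5 ug/ml coating) with compound, 2.5 hrs at 37° C then 30 min at 25° C; luminescence read with One-Glo Ex. Normalized to DMSO (basal) and 1 micromolar compound (maximum) controls; EC50 from four-parameter fit, geometric mean across experiments.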

human DGKα, sequence (P23743 whole entry): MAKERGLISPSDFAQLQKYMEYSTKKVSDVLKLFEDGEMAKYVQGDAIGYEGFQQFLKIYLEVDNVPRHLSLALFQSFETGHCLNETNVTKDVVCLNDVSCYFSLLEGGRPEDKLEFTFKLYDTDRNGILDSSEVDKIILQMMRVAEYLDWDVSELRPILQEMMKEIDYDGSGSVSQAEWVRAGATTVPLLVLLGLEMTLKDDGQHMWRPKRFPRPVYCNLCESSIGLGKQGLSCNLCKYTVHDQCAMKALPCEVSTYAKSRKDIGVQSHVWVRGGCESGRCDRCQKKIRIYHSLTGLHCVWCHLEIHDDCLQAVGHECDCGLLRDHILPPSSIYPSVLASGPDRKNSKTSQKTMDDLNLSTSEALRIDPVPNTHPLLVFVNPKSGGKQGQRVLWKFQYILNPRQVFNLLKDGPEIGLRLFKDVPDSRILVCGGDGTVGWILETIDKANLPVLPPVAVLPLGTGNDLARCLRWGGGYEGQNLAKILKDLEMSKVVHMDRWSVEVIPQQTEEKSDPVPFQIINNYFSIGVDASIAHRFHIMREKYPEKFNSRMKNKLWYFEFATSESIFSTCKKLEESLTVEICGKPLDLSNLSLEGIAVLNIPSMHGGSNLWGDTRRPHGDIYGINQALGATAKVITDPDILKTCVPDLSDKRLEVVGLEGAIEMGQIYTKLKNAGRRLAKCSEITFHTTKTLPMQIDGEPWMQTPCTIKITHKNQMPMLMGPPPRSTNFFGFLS

SMILES | pIC50 (human DGKα) | pEC50 [1]
COc1ccc2c(N(C)c3cccc(-c4ccc(C5CC5)cc4)c3)nc3nncn3c2n1 [Example 129, N-(4′-cyclopropyl-[1,1′-biphenyl]-3-yl)-2-methoxy-N-methylpyrido[3,2-e][1,2,4]triazolo[4,3-a]pyrimidin-5-amine] | 7.54 | 9.12
COc1ccc2c(N(C)c3cccc(-c4ccc(C(F)F)cc4)c3)nc3nncn3c2n1 [Example 130, N-(4′-(difluoromethyl)-[1,1′-biphenyl]-3-yl)-2-methoxy-N-methylpyrido[3,2-e][1,2,4]triazolo[4,3-a]pyrimidin-5-amine] | 7.26 | 8.60
CN(c1cccc(-c2ccc(C(F)F)cc2)c1)c1nc2nncn2c2nc(N)ccc12 [Example 131, N5-(4′-(difluoromethyl)-[1,1′-biphenyl]-3-yl)-N5-methylpyrido[3,2-e][1,2,4]triazolo[4,3-a]pyrimidine-2,5-diamine] | 7.94 | 8.11
CN(c1cccc(Cl)c1)c1nc2nncn2c2nc(N)ccc12 [Example 132, N5-(3-chlorophenyl)-N5-methylpyrido[3,2-e][1,2,4]triazolo[4,3-a]pyrimidine-2,5-diamine] | 6.41 | 7.04
COc1ccc2c(N(C)c3cccc(-c4ccc(C(F)F)cc4)c3)nc3nnc(C)n3c2n1 [Example 133, N-(4′-(difluoromethyl)-[1,1′-biphenyl]-3-yl)-2-methoxy-N,9-dimethylpyrido[3,2-e][1,2,4]triazolo[4,3-a]pyrimidin-5-amine] | 7.28 | 8.70
Cc1nnc2nc(N(C)c3cccc(-c4ccc(C(F)F)cc4)c3)c3ccc(N)nc3n12 [Example 134, N5-(4′-(difluoromethyl)-[1,1′-biphenyl]-3-yl)-N5,9-dimethylpyrido[3,2-e][1,2,4]triazolo[4,3-a]pyrimidine-2,5-diamine] | 7.91 | 8.08
Cc1nnc2nc(N3CCCc4c(C#Cc5cnn(C)c5)cccc43)c3cc(F)cnc3n12 [Example 135] | 8.39 | 8.51
Cc1nnc2nc(N3CCOCc4c(C#CC(C)(C)C#N)cccc43)c3cc(F)cnc3n12 [Example 136] | 8.48 | 7.98
Cc1nnc2nc(N3CCOCc4c(C#Cc5cnn(C)c5)cccc43)c3ccc(C(F)(F)F)nc3n12 [Example 137, 6-((1-methyl-1H-pyrazol-4-yl)ethynyl)-1-(9-methyl-2-(trifluoromethyl)pyrido[3,2-e][1,2,4]triazolo[4,3-a]pyrimidin-5-yl)-1,2,3,5-tetrahydrobenzo[e][1,4]oxazepane] | 8.08 | 8.25
Cc1nnc2nc(N3CCOCc4c(C#CC(C)(C)C#N)cccc43)c3ccc(C(F)(F)F)nc3n12 [Example 138, 2,2-dimethyl-4-(1-(9-methyl-2 (trifluoromethyl)pyrido[3,2-e][1,2,4]triazolo[4,3-a]pyrimidin-5-yl)-1,2,3,5-tetrahydrobenzo[e][1,4]oxazepin-6-yl)but-3-ynenitrile] | 8.18 | 8.36
Cc1nnc2nc(N3CCCc4c(C#Cc5cnn(C)c5)cccc43)c3ccc(C(F)(F)F)nc3n12 [Example 139, 9-methyl-5-(5-((1-methyl-1H-pyrazol-4-yl)ethynyl)-3,4-dihydroquinolin-1(2H)-yl)-2-(trifluoromethyl)pyrido[3,2-e][1,2,4]triazolo[4,3-a]pyrimidine] | 7.32 | 8.22
Cc1nnc2nc(N3CCOCc4c(C#CC5(C)CC5)cccc43)c3ccc(C(F)(F)F)nc3n12 [Example 140, 1-(9-methyl-2-(trifluoromethyl)pyrido[3,2-e][1,2,4]triazolo[4,3-a]pyrimidin-5-yl)-6-((1-methylcyclopropyl)ethynyl)-1,2,3,5-tetrahydrobenzo[e][1,4]oxazepine] | 7.94 | 8.63
Cc1nnc2nc(N3CCOCc4c(C#CC(C)(C)O)cccc43)c3ccc(C(F)(F)F)nc3n12 [Example 141, 2-methyl-4-[1-[3-methyl-12-(trifluoromethyl)-2,4,5,7,13-pentazatricyclo[7.4.0.02,6]trideca-1(13),3,5,7,9,11-hexaen-8-yl]-3,5-dihydro-2H-4,1-benzoxazepin-6-yl]but-3-yn-2-ol] | 7.70 | 7.25
Cc1nnc2nc(N3CCCc4c(C#CC5(C(F)(F)F)CC5)cccc43)c3ccc(C(F)(F)F)nc3n12 [Example 142, 9-methyl-2-(trifluoromethyl)-5-(5-((1-(trifluoromethyl)cyclopropyl)ethynyl)-3,4-dihydroquinolin-1(2H)-yl)pyrido[3,2-e][1,2,4]triazolo[4,3-a]pyrimidine] | 6.15 | 9.33
Cc1nnc2nc(N3CCCc4c(C#CC5(C)CC5)cccc43)c3ccc(C(F)(F)F)nc3n12 [Example 143, 9-methyl-5-(5-((1-methylcyclopropyl)ethynyl)-3,4-dihydroquinolin-1(2H)-yl)-2-(trifluoromethyl)pyrido[3,2-e][1,2,4]triazolo[4,3-a]pyrimidine] | 8.86 | 10.29
Cc1nnc2nc(N3CCCc4c(C#CC(C)(C)C#N)cccc43)c3cc(F)cnc3n12 [Example 144, 4-(1-(3-fluoro-9-methylpyrido[3,2-e][1,2,4]triazolo[4,3-a]pyrimidin-5-yl)-1,2,3,4-tetrahydroquinolin-5-yl)-2,2-dimethylbut-3-ynenitrile] | 8.29 | 8.33
Cc1nnc2nc(N3CCCc4c(C#CC(C)(C)O)cccc43)c3ccc(C(F)(F)F)nc3n12 [Example 145, 2-methyl-4-(1-(9-methyl-2-(trifluoromethyl)pyrido[3,2-e][1,2,4]triazolo[4,3-a]pyrimidin-5-yl)-1,2,3,4-tetrahydroquinolin-5-yl)but-3-yn-2-ol] | 7.22 | 8.06
CCC(O)C#Cc1cccc2c1CCCN2c1nc2nncn2c2ncc(F)cc12 (centres unmarked) [Example 146, 1-(1-(3-fluoropyrido[3,2-e][1,2,4]triazolo[4,3-a]pyrimidin-5-yl)-1,2,3,4-tetrahydroquinolin-5-yl)pent-1-yn-3-ol] | 8.11 | 7.74
CC(C)(C#N)C#Cc1cccc2c1CCCN2c1nc2nncn2c2ncc(F)cc12 [Example 147, 4-(1-(3-fluoropyrido[3,2-e][1,2,4]triazolo[4,3-a]pyrimidin-5-yl)-1,2,3,4-tetrahydroquinolin-5-yl)-2,2-dimethylbut-3-ynenitrile] | 8.36 | 8.37
CCC(C)(O)C#Cc1cccc2c1CCCN2c1nc2nncn2c2ncc(F)cc12 (centres unmarked) [Example 148, 1-(1-(3-fluoropyrido[3,2-e][1,2,4]triazolo[4,3-a]pyrimidin-5-yl)-1,2,3,4-tetrahydroquinolin-5-yl)-3-methylpent-1-yn-3-ol] | 7.86 | 7.68
CC(C)(O)C#Cc1cccc2c1CCCN2c1nc2nncn2c2ncc(F)cc12 [Example 149, 4-(1-(3-fluoropyrido[3,2-e][1,2,4]triazolo[4,3-a]pyrimidin-5-yl)-1,2,3,4-tetrahydroquinolin-5-yl)-2-methylbut-3-yn-2-ol] | 8.06 | 7.92
Fc1cnc2c(c1)c(N1CCCc3c(C#CC4(C(F)(F)F)CC4)cccc31)nc1nncn12 [Example 150, 11-fluoro-8-[5-[2-[1-(trifluoromethyl)cyclopropyl]ethynyl]-3,4-dihydro-2H-quinolin-1-yl]-2,4,5,7,13-pentazatricyclo[7.4.0.02,6]trideca-1(13),3,5,7,9,11-hexaene] | 8.07 | 8.66
